Experimental data published in patent US11477982B2, “2-amino-5-oxyalkyl-pyrimidine derivatives and their use for controlling undesired plant growth” (Bayer CropScience Aktiengesellschaft, priority 2017, dated 2022).

What was measured:
Type in all cases: in vivo
[1] = test system: AMARE: Amaranthus retroflexus; experiment: Pre-emergence herbicidal effect; conditions: pre-emergence
Excerpt: (§1) 1. Pre-Emergence Herbicidal Effect and Crop Plant Compatibility
(§2) Seeds of monocotyledonous and dicotyledonous weed plants and crop plants are placed in plastic or wood fiber pots and covered with soil. The compounds of the invention, formulated in the form of wettable powders (WP) or as emulsion concentrates (EC), are then applied onto the surface of the covering soil as aqueous suspension or emulsion with addition of 0.5% additive at a water application rate of 600 l/ha (converted).
(§3) After the treatment, the pots are placed in a greenhouse and kept under good growth conditions for the trial plants. After about 3 weeks, the effect of the preparations is scored visually in comparison with untreated controls as percentages. For example, 100% activity=the plants have died, 0% activity=like control plants.

[2] = test system: MATIN: Matricaria inodora; experiment: Pre-emergence herbicidal effect; conditions: pre-emergence; dosage 320 g/ha
Excerpt: as §1, §2, §3

[3] = test system: POLCO: Polygonum convolvulus; experiment: Pre-emergence herbicidal effect; conditions: for Herbicidal efficacy against POLCO: Table 4a, dosage 20 g of a.i./ha
Excerpt: as §1, §2, §3

[4] = test system: VERPE: Veronica persica; experiment: Pre-emergence herbicidal effect; conditions: dosage 320 g/ha
Excerpt: as §1, §2, §3

[5] = test system: VIOTR: Viola tricolor; experiment: Pre-emergence herbicidal effect; conditions: dosage 320 g/ha
Excerpt: as §1, §2, §3

[6] = test system: AVEFA: Avena fatua; experiment: Pre-emergence herbicidal effect
Excerpt: as §1, §2, §3

[7] = test system: HORMU: Hordeum murinum; experiment: Pre-emergence herbicidal effect; conditions: pre-emergence
Excerpt: as §1, §2, §3

[8] = test system: PHBPU: Ipomoea purpurea; experiment: Pre-emergence herbicidal effect; conditions: for Herbicidal efficacy against PHBPU: Table 4a, dosage 20 g of a.i./ha
Excerpt: as §1, §2, §3

[9] = test system: STEME: Stellaria media; experiment: Post-emergence herbicidal effect
Description: (§4) 2. Post-Emergence Herbicidal Effect and Crop Plant Compatibility
(§5) Seeds of monocotyledonous and dicotyledonous weeds and crop plants are placed in sandy loam in plastic or wood-fiber pots, covered with soil and cultivated in a greenhouse under controlled growth conditions, 2 to 3 weeks after sowing, the test plants are treated at the one-leaf stage. The compounds of the invention, formulated in the form of wettable powders (WP) or as emulsion concentrates (EC), are then sprayed onto the green parts of the plants as aqueous suspension or emulsion with addition of 0.5% additive at a water application rate of 600 l/ha (converted). After the test plants had been kept in the greenhouse under optimum growth conditions for about 3 weeks, the activity of the preparations is rated visually in comparison to untreated controls. For example, 100% activity=the plants have died, 0% activity=like control plants.

[10] = test system: ABUTH: Abutilon theophrasti; experiment: Post-emergence herbicidal effect; conditions: dosage 320 g/ha
Description: as §4, §5

[11] = test system: AMARE: Amaranthus retroflexus; experiment: Post-emergence herbicidal effect; conditions: dosage 320 g/ha
Description: as §4, §5

[12] = test system: ECHCG: Echinochloa crus-galli; experiment: Post-emergence herbicidal effect; conditions: dosage 320 g/ha
Description: as §4, §5

[13] = test system: ABUTH: Abutilon theophrasti; experiment: Pre-emergence herbicidal effect; conditions: Table 4a, dosage 20 g of a.i./ha
Excerpt: as §1, §2, §3

[14] = test system: ALOMY: Alopecurus myosuroides; experiment: Pre-emergence herbicidal effect; conditions: Table 4a; pre-emergence; dosage 20 g of a.i./ha
Excerpt: as §1, §2, §3

[15] = test system: ECHCG: Echinochloa crus-galli; experiment: Pre-emergence herbicidal effect; conditions: Table 4a; pre-emergence; dosage 20 g of a.i./ha
Excerpt: as §1, §2, §3

[16] = test system: LOLRI: Lolium rigidum; experiment: Pre-emergence herbicidal effect; conditions: Table 4a, dosage 20 g of a.i./ha
Excerpt: as §1, §2, §3

[17] = test system: SETVI: Setaria viridis; experiment: Pre-emergence herbicidal effect; conditions: Table 4a; pre-emergence; dosage 20 g of a.i./ha
Excerpt: as §1, §2, §3

| SMILES | Herbicidal action against AMARE ([1]; dosage 320 g/ha) [%] | Herbicidal action against MATIN [2] [%] | Herbicidal action against POLCO ([3]; dosage 320 g/ha) [%] | Herbicidal action against VERPE [4] [%] | Herbicidal action against VIOTR [5] [%] | other results |
| --- | --- | --- | --- | --- | --- | --- |
| CC(C)(O)c1cnc(NC2CCOc3ccccc32)nc1 (racemic) [Example 1.9] | 100 | 100 | 100 | 100 | 100 | – |
| Cc1cccc2c1CCCC2Nc1ncc(C(C)(C)O)cn1 (racemic) [Example 1.41] | 100 | 100 | 100 | 100 | 100 | – |
| COc1cccc2c1CCCC2Nc1ncc(C(C)(C)O)c(C)n1 (racemic) [Example 1.44] | 100 | 100 | 100 | 100 | 100 | – |
| Cc1ccc2c(c1)[C@H](Nc1ncc([C@H](C)O)c(N)n1)[C@@H](C)C2 (racemic) [drawing 5, reference compound] | – | – | – | – | – | Herbicidal action against AVEFA ([6]; dosage 80 g/ha): 20%; Herbicidal action against AVEFA ([6]; dosage 320 g/ha): 60% |
| Cc1ccc2c(c1)[C@H](Nc1ncc([C@H](C)O)c(N)n1)[C@@H](C)C2 (racemic) [drawing 8, reference compound] | – | – | – | – | – | Herbicidal action against HORMU ([7]; dosage 320 g/ha): 20%; Herbicidal action against PHBPU ([8]; dosage 320 g/ha): 20% |
| Cc1ccc2c(c1)[C@H](Nc1ncc([C@H](C)O)c(N)n1)[C@@H](C)C2 (racemic) [drawing 15, reference compound] | – | – | – | – | – | Herbicidal action against STEME ([9]; dosage 80 g/ha): 70% |
| Cc1ccc2c(c1)[C@H](Nc1ncc(C(C)OCc3ccc(F)cc3)cn1)[C@@H](C)C2 (stereo partly drawn) [Example 1.3] | 100 | 100 | 80 | 100 | 100 | – |
| Cc1ccc2c(c1)[C@H](Nc1ncc(C(C)(C#N)O[Si](C)(C)C)cn1)[C@@H](C)C2 (stereo partly drawn) [Example 1.16] | 100 | 100 | 100 | 100 | 100 | – |
| Cc1ccc2c(c1)[C@H](Nc1ncc(C(C)O)c(C(C)F)n1)[C@@H](C)C2 (stereo partly drawn) [Example 1.19] | 100 | 100 | 100 | 100 | 100 | – |
| Cc1ccc2c(c1)[C@H](Nc1ncc(C(C)(O)c3ccccc3)cn1)[C@@H](C)C2 (stereo partly drawn) [Example 1.21] | 100 | 100 | 100 | 100 | 100 | – |
| Cc1ccc2c(c1)[C@H](Nc1ncc(C(C)(O)CC(C)C)cn1)[C@@H](C)C2 (stereo partly drawn) [Example 1.25] | 100 | 100 | 100 | 100 | 100 | – |
| Cc1ccc2c(c1)[C@H](Nc1ncc(C(C)(O)Cc3ccccc3)cn1)[C@@H](C)C2 (stereo partly drawn) [Example 1.26] | 100 | 100 | 100 | 100 | 100 | – |
| CC(C)=CC(C)(O)c1cnc(N[C@H]2c3cc(C)ccc3C[C@@H]2C)nc1 (stereo partly drawn) [Example 1.27] | 100 | 100 | 100 | 100 | 100 | – |
| C=CCCC(C)(O)c1cnc(N[C@H]2c3cc(C)ccc3C[C@@H]2C)nc1 (stereo partly drawn) [Example 1.28] | 100 | 100 | 100 | 100 | 100 | – |
| Cc1nc(N[C@@H]2CCc3ccccc32)ncc1C(C)O (stereo partly drawn) [Example 1.47] | 100 | 100 | 100 | 100 | 100 | – |
| Cc1ccc2c(c1)[C@H](Nc1ncc(C(C)O)c(C)n1)CCO2 (stereo partly drawn) [Example 1.49] | 100 | 100 | 100 | 100 | 100 | Herbicidal action against ABUTH [10]: 80%; Herbicidal action against AMARE [11]: 90%; Herbicidal action against ECHCG [12]: 80%; Herbicidal action against STEME ([9]; dosage 320 g/ha): 90% |
| Cc1ccc2c(c1)[C@H](Nc1ncc(C(C)(C)O)c(N)n1)[C@@H](C)C2 [drawing 6, reference compound] | – | – | – | – | – | Herbicidal action against AMARE ([1]; dosage 80 g/ha): 40%; Herbicidal action against HORMU ([7]; dosage 80 g/ha): 20%; Herbicidal action against PHBPU ([8]; dosage 80 g/ha): 0%; Herbicidal action against PHBPU ([8]; dosage 320 g/ha): 0%; Herbicidal action against POLCO ([3]; dosage 80 g/ha): 0% |
| Cc1cc2c(s1)CCCC2Nc1ncc(C(C)(C)O)c(C)n1 (stereo not drawn) [drawing 16, reference compound] | – | – | – | – | – | Herbicidal efficacy against ABUTH [13]: 80; Herbicidal efficacy against ALOMY [14]: 30; Herbicidal efficacy against ECHCG [15]: 30; Herbicidal efficacy against LOLRI [16]: 0; Herbicidal efficacy against PHBPU [8]: 0; Herbicidal efficacy against POLCO [3]: 20; Herbicidal efficacy against SETVI [17]: 80 |
| Cc1cc2c(s1)CCCC2Nc1ncc(C(C)O)c(C)n1 (stereo not drawn) [drawing 17, reference compound] | – | – | – | – | – | Herbicidal efficacy against ABUTH [13]: 0; Herbicidal efficacy against ALOMY [14]: 0; Herbicidal efficacy against ECHCG [15]: 0; Herbicidal efficacy against LOLRI [16]: 0; Herbicidal efficacy against PHBPU [8]: 0; Herbicidal efficacy against POLCO [3]: 20; Herbicidal efficacy against SETVI [17]: 20 |
